Measurements from publication PMC3433420 (PLoS ONE, 2012).
Residues, ends and D or L forms follow the SMILES beside them.

Legend:
SH2 and PTB domains [1] = molecular target: T1, SH2 and PTB domains (Homo sapiens, UniProt P12931); assay: In-house protein microarrays (with or without 5 mM DTT), protein named per line; type: binding; details: protein SRC
T1 construct: thioredoxin; made in house; host or cells: BL21(DE3)pLysS E. coli
Summary of the method: (§1)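 KD values come from rhodamine fluorescence of duplicate spots after subtraction of a thioredoxin control. Domains were printed at ~40 µM on aldehyde slides, blocked 1 h at room temperature in pH 7.8 HEPES/KCl buffer with 5 mM DTT and 1% BSA, then peptide-probed.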

SH2 and PTB domains [2] = molecular target: T2, SH2 and PTB domains (Homo sapiens, UniProt P43405); assay: as above; type: binding
T2 construct: thioredoxin; made in house; host or cells: BL21(DE3)pLysS E. coli
Summary of the method: as §1

SH2 and PTB domains [3] = molecular target: T3, SH2 and PTB domains (Homo sapiens, UniProt O00459); assay: as above; type: binding
T3 construct: thioredoxin; made in house; host or cells: BL21(DE3)pLysS E. coli
T3 sequence (O00459 whole entry, the tested form may be a part): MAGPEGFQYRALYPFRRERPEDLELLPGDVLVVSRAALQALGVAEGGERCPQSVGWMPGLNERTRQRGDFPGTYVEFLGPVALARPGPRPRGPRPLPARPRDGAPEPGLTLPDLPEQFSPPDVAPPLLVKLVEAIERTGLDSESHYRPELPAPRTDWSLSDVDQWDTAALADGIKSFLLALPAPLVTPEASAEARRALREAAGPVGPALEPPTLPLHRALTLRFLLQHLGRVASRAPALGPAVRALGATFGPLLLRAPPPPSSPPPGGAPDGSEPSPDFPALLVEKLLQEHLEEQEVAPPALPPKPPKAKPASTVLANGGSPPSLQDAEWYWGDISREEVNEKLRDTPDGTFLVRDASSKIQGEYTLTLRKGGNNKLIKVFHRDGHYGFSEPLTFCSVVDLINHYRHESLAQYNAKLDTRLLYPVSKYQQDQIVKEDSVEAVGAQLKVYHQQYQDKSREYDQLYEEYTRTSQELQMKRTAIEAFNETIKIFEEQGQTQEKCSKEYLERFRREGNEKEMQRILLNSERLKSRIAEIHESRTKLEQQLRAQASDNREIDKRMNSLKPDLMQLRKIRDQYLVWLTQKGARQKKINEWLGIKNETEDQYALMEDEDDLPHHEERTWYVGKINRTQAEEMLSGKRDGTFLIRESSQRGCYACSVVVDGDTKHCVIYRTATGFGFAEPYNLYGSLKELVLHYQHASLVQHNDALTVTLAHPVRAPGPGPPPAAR
Summary of the method: as §1

SH2 and PTB domains [4] = molecular target: T4, SH2 and PTB domains (Homo sapiens, UniProt P07947); assay: as above; type: binding; details: protein YES1
T4 construct: thioredoxin; made in house; host or cells: BL21(DE3)pLysS E. coli
T4 sequence (P07947 whole entry, the tested form may be a part): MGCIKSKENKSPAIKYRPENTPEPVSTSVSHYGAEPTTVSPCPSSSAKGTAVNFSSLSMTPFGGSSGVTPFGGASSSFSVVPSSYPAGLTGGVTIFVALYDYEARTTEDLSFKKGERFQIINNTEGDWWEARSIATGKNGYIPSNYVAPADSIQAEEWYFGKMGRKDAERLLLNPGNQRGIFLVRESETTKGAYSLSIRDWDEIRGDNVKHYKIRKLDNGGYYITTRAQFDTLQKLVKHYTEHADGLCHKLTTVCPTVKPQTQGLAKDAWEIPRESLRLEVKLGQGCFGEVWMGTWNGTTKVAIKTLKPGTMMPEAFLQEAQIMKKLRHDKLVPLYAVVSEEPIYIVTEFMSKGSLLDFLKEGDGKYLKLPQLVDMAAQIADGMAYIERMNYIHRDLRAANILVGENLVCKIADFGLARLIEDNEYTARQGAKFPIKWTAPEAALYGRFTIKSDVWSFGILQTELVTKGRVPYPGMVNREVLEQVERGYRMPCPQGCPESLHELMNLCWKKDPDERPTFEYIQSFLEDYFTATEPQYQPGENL
Summary of the method: as §1

SH2 and PTB domains [5] = molecular target: T5, SH2 and PTB domains (Homo sapiens, UniProt Q9BRG2); assay: as above; type: binding; details: protein SH2D3A
T5 construct: thioredoxin; made in house; host or cells: BL21(DE3)pLysS E. coli
T5 sequence (Q9BRG2 whole entry, the tested form may be a part): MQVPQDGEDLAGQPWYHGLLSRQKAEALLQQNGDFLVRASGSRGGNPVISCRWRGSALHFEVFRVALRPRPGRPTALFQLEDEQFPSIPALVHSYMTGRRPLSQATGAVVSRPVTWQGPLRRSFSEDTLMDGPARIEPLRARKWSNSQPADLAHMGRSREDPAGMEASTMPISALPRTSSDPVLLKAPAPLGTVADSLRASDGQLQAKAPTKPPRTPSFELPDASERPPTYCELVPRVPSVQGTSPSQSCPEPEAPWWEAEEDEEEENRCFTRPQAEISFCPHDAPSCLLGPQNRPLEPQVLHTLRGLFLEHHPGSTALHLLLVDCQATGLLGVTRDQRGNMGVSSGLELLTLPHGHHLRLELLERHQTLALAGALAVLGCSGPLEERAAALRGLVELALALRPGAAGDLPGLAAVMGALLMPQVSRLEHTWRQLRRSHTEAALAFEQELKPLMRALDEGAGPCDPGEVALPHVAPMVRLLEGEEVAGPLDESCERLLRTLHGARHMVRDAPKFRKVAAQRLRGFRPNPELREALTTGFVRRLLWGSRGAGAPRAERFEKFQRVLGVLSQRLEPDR
Summary of the method: as §1

GRB7 SH2 domain = GRB7 SH2 domain (Homo sapiens, UniProt Q14451); assay: FP saturation binding assay
Chain of GRB7 SH2 domain (Q14451 431-527 limits assumed): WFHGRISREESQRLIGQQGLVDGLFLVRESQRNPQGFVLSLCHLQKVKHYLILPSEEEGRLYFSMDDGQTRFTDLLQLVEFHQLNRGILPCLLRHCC

[6] = protein SYK-N, PM assay replicate # 39336, array fabrication # 39329
[7] = protein SYK-NC, PM assay replicate # 39336, array fabrication # 39329
[8] = PM assay replicate # 39336, array fabrication # 39329
[9] = PM assay replicate # 39337, array fabrication # 39329
[10] = protein SYK-NC, PM assay replicate # 39337, array fabrication # 39329
[11] = PM assay replicate # 39307, array fabrication # 39286
[12] = PM assay replicate # 39352, array fabrication # 39336
[13] = protein SYK-NC, PM assay replicate # 39307, array fabrication # 39286
[14] = protein SYK-NC, PM assay replicate # 39351, array fabrication # 39336
[15] = protein SYK-NC, PM assay replicate # 39352, array fabrication # 39336

T1 sequence (P12931 whole entry, the tested form may be a part): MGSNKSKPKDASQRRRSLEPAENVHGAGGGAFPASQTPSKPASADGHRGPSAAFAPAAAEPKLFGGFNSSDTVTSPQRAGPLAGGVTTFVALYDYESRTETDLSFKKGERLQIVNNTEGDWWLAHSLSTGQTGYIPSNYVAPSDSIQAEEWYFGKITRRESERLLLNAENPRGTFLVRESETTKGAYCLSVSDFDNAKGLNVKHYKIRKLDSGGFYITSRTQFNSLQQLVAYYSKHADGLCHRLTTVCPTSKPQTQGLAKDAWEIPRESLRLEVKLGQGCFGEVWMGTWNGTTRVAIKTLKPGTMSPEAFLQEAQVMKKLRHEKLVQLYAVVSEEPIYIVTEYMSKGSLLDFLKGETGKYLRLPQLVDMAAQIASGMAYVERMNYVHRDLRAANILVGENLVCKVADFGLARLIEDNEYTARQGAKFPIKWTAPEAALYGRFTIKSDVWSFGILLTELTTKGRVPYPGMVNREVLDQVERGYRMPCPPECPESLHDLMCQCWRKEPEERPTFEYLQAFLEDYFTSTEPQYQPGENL

Row | Molecule | Kd (SH2 and PTB domains [2]; [6]) [nM] | Kd (SH2 and PTB domains [2]; [7]) [nM] | Kd (SH2 and PTB domains [4]; [9]) [nM] | Kd (SH2 and PTB domains [2]; [10]) [nM] | Kd (SH2 and PTB domains [4]; [11]) [nM] | Kd (SH2 and PTB domains [4]; [12]) [nM] | Kd (SH2 and PTB domains [1]; [11]) [nM] | Kd (SH2 and PTB domains [2]; [13]) [nM] | Kd (SH2 and PTB domains [2]; [14]) [nM] | Kd (SH2 and PTB domains [2]; [15]) [nM] | Kd (SH2 and PTB domains [5]; [11]) [nM] | further results
1 | CC(C)C[C@H](NC(=O)[C@@H]1CCCN1)C(=O)N[C@@H](CCC(N)=O)C(=O)N[C@@H](CCCNC(=N)N)C(=O)N[C@@H](Cc1ccc(OP(=O)(O)O)cc1)C(=O)N[C@@H](CO)C(=O)N[C@@H](CCC(=O)O)C(=O)N[C@@H](CC(=O)O)C(=O)N1CCC[C@H]1C(=O)N[C@H](C(=O)N[C@H](C(=O)N1CCC[C@H]1C(=O)N[C@@H](CC(=O)O)C(=O)O)C(C)C)[C@@H](C)O [ErbB2 pY1112] (HELM PEPTIDE1{P.L.Q.R.[O=C([C@H](Cc1ccc(OP(=O)(O)O)cc1)N[*:1])[*:2]].S.E.D.P.T.V.P.D}$$$$V2.0) | 14580 | 800 |  |  |  |  |  |  |  |  |  | Kd (SH2 and PTB domains [1]; PM assay replicate # 39331, array fabrication # 39329): 183210 nM; Kd (SH2 and PTB domains [2]; protein SYK-N, PM assay replicate # 39331, array fabrication # 39329): 3620 nM; Kd (SH2 and PTB domains [2]; protein SYK-NC, PM assay replicate # 39331, array fabrication # 39329): 890 nM
2 | CC(C)C[C@H](NC(=O)[C@@H]1CCCN1C(=O)[C@H](C)NC(=O)[C@@H](NC(=O)[C@H](Cc1ccc(OP(=O)(O)O)cc1)NC(=O)CNC(=O)[C@H](CC(=O)O)NC(=O)[C@@H](NC(=O)[C@@H](N)CCC(=O)O)[C@@H](C)O)C(C)C)C(=O)N[C@H](C(=O)N[C@@H](CS)C(=O)N[C@@H](CO)C(=O)N[C@@H](CC(=O)O)C(=O)O)[C@@H](C)O [ErbB2 pY1127] | 2330 | 1300 | 65.1 | 960 |  |  |  |  |  |  |  | Kd (SH2 and PTB domains [3]; protein PIK3R2-N, PM assay replicate # 39336, array fabrication # 39329): 40 nM; Kd (SH2 and PTB domains [3]; protein PIK3R2-N, PM assay replicate # 39337, array fabrication # 39329): 150 nM; Kd (SH2 and PTB domains [4]; [8]): 5.3 nM; Kd (SH2 and PTB domains [1]; [8]): 35 nM; Kd (SH2 and PTB domains [1]; [9]): 380 nM; Kd (SH2 and PTB domains [1]; PM assay replicate # 39603, array fabrication # 39392): 250 nM; Kd (SH2 and PTB domains [2]; protein SYK-C, PM assay replicate # 39336, array fabrication # 39329): 2390 nM; Kd (SH2 and PTB domains [2]; protein SYK-C, PM assay replicate # 39337, array fabrication # 39329): 1920 nM; Kd (SH2 and PTB domains [2]; protein SYK-N, PM assay replicate # 39337, array fabrication # 39329): 3210 nM; Kd (SH2 and PTB domains [5]; [8]): 150 nM; Kd (SH2 and PTB domains [5]; [9]): 1150 nM
3 | CCN(CC)c1ccc2c(-c3ccc(C(=O)N[C@@H](CC(N)=O)C(=O)NCC(=O)N4CCC[C@H]4C(=O)N4CCC[C@H]4C(=O)N[C@@H](CCCCN)C(=O)N[C@@H](C)C(=O)N[C@@H](CCC(=O)O)C(=O)N[C@@H](CC(=O)O)C(=O)N[C@@H](CCC(=O)O)C(=O)N[C@@H](Cc4ccc(OP(=O)(O)O)cc4)C(=O)N[C@H](C(=O)N[C@@H](CC(N)=O)C(=O)N[C@@H](CCC(=O)O)C(=O)N4CCC[C@H]4C(=O)N[C@@H](CC(C)C)C(=O)N[C@@H](Cc4ccc(O)cc4)C(=O)N[C@@H](CC(C)C)C(=O)N[C@@H](CC(=O)O)C(=O)O)C(C)C)cc3C(=O)[O-])c3ccc(=[N+](CC)CC)cc-3oc2c1 [ErbB4 1202 (18-mer)] (HELM PEPTIDE1{[CCN(CC)c1ccc2c(-c3ccc(C(=O)[*:2])cc3C(=O)[O-])c3ccc(=[N+](CC)CC)cc-3oc2c1].N.G.P.P.K.A.E.D.E.[O=C([C@H](Cc1ccc(OP(=O)(O)O)cc1)N[*:1])[*:2]].V.N.E.P.L.Y.L.D}$$$$V2.0) |  |  | 1440 | 1420 | 350 | 420 | 400 | 950 | 810 | 1150 | 1000 | Kd (SH2 and PTB domains [3]; protein PIK3R2-NC, PM assay replicate # 39337, array fabrication # 39329): 650 nM; Kd (SH2 and PTB domains [4]; PM assay replicate # 39351, array fabrication # 39336): 1610 nM
4 | CC(C)C[C@H](NC(=O)[C@H](Cc1ccc(OP(=O)(O)O)cc1)NC(=O)[C@H](CC(C)C)NC(=O)[C@@H]1CCCN1C(=O)[C@H](CCC(=O)O)NC(=O)[C@H](CC(N)=O)NC(=O)[C@@H](NC(=O)[C@H](Cc1ccc(O)cc1)NC(=O)[C@H](CCC(=O)O)NC(=O)[C@H](CC(=O)O)NC(=O)[C@@H](N)CCC(=O)O)C(C)C)C(=O)N[C@@H](CC(N)=O)C(=O)N[C@H](C(=O)N[C@@H](Cc1ccccc1)C(=O)N[C@@H](C)C(=O)N[C@@H](CC(N)=O)C(=O)N[C@H](C(=O)N[C@@H](CC(=O)O)C(=O)O)[C@@H](C)O)[C@@H](C)O [ErbB4 1208 18-mer] (HELM PEPTIDE1{E.D.E.Y.V.N.E.P.L.[O=C([C@H](Cc1ccc(OP(=O)(O)O)cc1)N[*:1])[*:2]].L.N.T.F.A.N.T.D}$$$$V2.0) |  |  |  |  |  |  |  |  |  |  |  | Kd (GRB7 SH2 domain; Mean KD, protein GRB7, high-confidence ErbB interactions, mean of replicate hits): 9990 nM
5 | CC[C@H](C)[C@H](NC(=O)[C@H](CC(N)=O)NC(=O)[C@H](CC(N)=O)NC(=O)[C@H](CCCCN)NC(=O)[C@H](CC(C)C)NC(=O)[C@H](Cc1ccc(OP(=O)(O)O)cc1)NC(=O)[C@H](CCC(=O)O)NC(=O)[C@H](C)NC(=O)[C@H](CCCCN)NC(=O)CNC(=O)[C@H](CC(C)C)NC(=O)[C@@H](NC(=O)[C@H](CC(N)=O)NC(=O)[C@H](C)NC(=O)[C@@H](N)Cc1ccccc1)[C@@H](C)O)C(=O)N[C@@H](CC(C)C)C(=O)N[C@@H](CO)C(=O)N[C@@H](CC(=O)O)C(=O)O [ErbB4 pY1221 (18-mer)] (HELM PEPTIDE1{F.A.N.T.L.G.K.A.E.[O=C([C@H](Cc1ccc(OP(=O)(O)O)cc1)N[*:1])[*:2]].L.K.N.N.I.L.S.D}$$$$V2.0) |  |  |  |  | 820 | 1320 | 440 | 290 | 810 | 1290 | 610 | Kd (SH2 and PTB domains [3]; protein PIK3R2-NC, PM assay replicate # 39307, array fabrication # 39286): 1340 nM; Kd (SH2 and PTB domains [2]; protein SYK-N, PM assay replicate # 39307, array fabrication # 39286): 9490 nM; Kd (SH2 and PTB domains [2]; protein SYK-N, PM assay replicate # 39352, array fabrication # 39336): 15600 nM
6 | DNLYpYWDQDPPEd [ErbB2 pY1222] |  |  |  |  |  |  |  |  |  |  |  | interaction with GRB7 on the FP platform (GRB7 SH2 domain; peptides queried on both FP and PM platforms): only displayed interactions with GRB7 from the PM platform
